Experimental data from the supplement of paper PMC4862054.
Where “and” joins values, the source holds several entries; their conditions need not be identical. Equal entries are not always repeated.

How the values were obtained:
Test in all cases: normalised viability (% of control), CellTiter-Blue; higher = more viable cells (about 100 = DMSO control)
Settings in all cases: incubation time: 72 h
[1] = test system: MDA-MB-231
In short: (§1)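 Normalised viability is given for a single listed concentration of the series. In 384-well plates, breast cancer cell lines were incubated 72 h with compound, then read with CellTiter-Blue (2 h, 37 °C) at 560/590 nm. Per-plate scaling set vehicle to 100 and a positive kill control to 0, with Z'-factor quality control.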

[2] = test system: MDA-MB-436
In short: as §1

[3] = test system: HCC1937
In short: as §1

[4] = test system: CAL-120
In short: as §1

[5] = test system: HDQ-P1
In short: as §1

[6] = test system: SK-BR-3
In short: as §1

[7] = test system: DU-4475
In short: as §1

Cc1c(N)nc([C@H](CC(N)=O)NC[C@H](N)C(N)=O)nc1C(=O)N[C@H](C(=O)N[C@H](C)[C@@H](O)[C@H](C)C(=O)N[C@H](C(=O)NCCc1nc(-c2nc(C(=O)NCCC[S+](C)C)cs2)cs1)[C@@H](C)O)[C@@H](OC1OC(CO)C(O)C(O)C1OC1OC(CO)C(O)C(OC(N)=O)C1O)c1cnc[nH]1 (stereo partly specified) [Bleomycin]
normalised viability ([1]; 10 nM): 88.7% | normalised viability ([1]; 1000 nM): 70% | normalised viability ([1]; 10000 nM): 60.3% | normalised viability ([2]; 10 nM): 92.3% | normalised viability ([2]; 1000 nM): 79% | normalised viability ([2]; 10000 nM): 44.7% | normalised viability ([3]; 10 nM): 92.2% | normalised viability ([3]; 1000 nM): 54.7% | normalised viability ([3]; 10000 nM): 28.2% | normalised viability ([4]; 10 nM): 94.4% | normalised viability ([4]; 1000 nM): 78.5% | normalised viability ([4]; 10000 nM): 67.7% | normalised viability ([5]; 3 nM): 80.9% | normalised viability ([5]; 30 nM): 88.5% | normalised viability ([5]; 100 nM): 27.8% | normalised viability ([6]; 10 nM): 89.6% | normalised viability ([6]; 1000 nM): 99.1% | normalised viability ([6]; 10000 nM): 89.5% | normalised viability ([7]; 3 nM): 117% | normalised viability ([7]; 30 nM): 84.4% | normalised viability ([7]; 100 nM): 116%

Cc1cc2c(F)c(Oc3ncnn4cc(OC[C@@H](C)O)c(C)c34)ccc2[nH]1 [Brivanib]
normalised viability ([1]; 1 nM): 113% | normalised viability ([1]; 100 nM): 89.2% | normalised viability ([1]; 1000 nM): 99.2% | normalised viability ([2]; 1 nM): 113% | normalised viability ([2]; 100 nM): 93% | normalised viability ([2]; 1000 nM): 96.4% | normalised viability ([3]; 1 nM): 87.8% | normalised viability ([3]; 100 nM): 104% | normalised viability ([3]; 1000 nM): 97.6% | normalised viability ([4]; 1 nM): 89.3% | normalised viability ([4]; 100 nM): 82.5% | normalised viability ([4]; 1000 nM): 93.2% | normalised viability ([5]; 0.3 nM): 94.9% | normalised viability ([5]; 3 nM): 115% | normalised viability ([5]; 10 nM): 96.3% | normalised viability ([6]; 1 nM): 98.8% | normalised viability ([6]; 100 nM): 112% | normalised viability ([6]; 1000 nM): 113% | normalised viability ([7]; 0.3 nM): 102% | normalised viability ([7]; 3 nM): 93.6% | normalised viability ([7]; 10 nM): 93.4%

CCCCCOC(=O)Nc1nc(=O)n([C@@H]2O[C@H](C)[C@@H](O)[C@H]2O)cc1F [Capecitabine]
normalised viability ([1]; 10 nM): 94.2% and 74.2% | normalised viability ([1]; 1000 nM): 108% and 87% | normalised viability ([1]; 10000 nM): 110% and 97.4% | normalised viability ([2]; 1000 nM): 72.3% and 89% | normalised viability ([2]; 10000 nM): 83.6% and 89% | normalised viability ([3]; 10 nM): 80.9% and 86% | normalised viability ([3]; 1000 nM): 88% and 75.8% | normalised viability ([3]; 10000 nM): 87.6% and 85.8% | normalised viability ([4]; 10 nM): 82.6% and 98.9% | normalised viability ([4]; 1000 nM): 83.9% and 100% | normalised viability ([4]; 10000 nM): 91.1% and 96.5% | normalised viability ([5]; 3 nM): 94.8% and 95.5% | normalised viability ([5]; 30 nM): 91.5% | normalised viability ([5]; 100 nM): 102% and 94.6% | normalised viability ([6]; 10 nM): 107% and 86.8% | normalised viability ([6]; 1000 nM): 108% and 93.6% | normalised viability ([6]; 10000 nM): 78.4% and 85.5% | normalised viability ([7]; 3 nM): 91.8% and 93.5% | normalised viability ([7]; 30 nM): 83.6% and 88.7% | normalised viability ([7]; 100 nM): 90.9% and 114%

CC(C)C[C@H](NC(=O)[C@H](CCc1ccccc1)NC(=O)CN1CCOCC1)C(=O)N[C@@H](Cc1ccccc1)C(=O)N[C@@H](CC(C)C)C(=O)[C@@]1(C)CO1 [Carfilzomib]
normalised viability ([1]; 1 nM): 105% | normalised viability ([1]; 100 nM): 2.47% | normalised viability ([1]; 1000 nM): 7.05% | normalised viability ([2]; 1 nM): 96.8% | normalised viability ([2]; 100 nM): 6.97% | normalised viability ([2]; 1000 nM): 10.9% | normalised viability ([3]; 1 nM): 74% | normalised viability ([3]; 100 nM): 5.98% | normalised viability ([3]; 1000 nM): 11% | normalised viability ([4]; 1 nM): 100% | normalised viability ([4]; 100 nM): 4.54% | normalised viability ([4]; 1000 nM): 2.9% | normalised viability ([5]; 0.3 nM): 105% | normalised viability ([5]; 3 nM): 98.9% | normalised viability ([5]; 10 nM): 56.7% | normalised viability ([6]; 1 nM): 97.8% | normalised viability ([6]; 100 nM): 16.7% | normalised viability ([6]; 1000 nM): 12.6% | normalised viability ([7]; 0.3 nM): 100% | normalised viability ([7]; 3 nM): 88.3% | normalised viability ([7]; 10 nM): 64.4%

Nc1nc(Cl)nc2c1ncn2[C@@H]1O[C@H](CO)[C@@H](O)[C@@H]1F [Clofarabine]
normalised viability ([1]; 10 nM): 89.1% | normalised viability ([1]; 1000 nM): 64.4% | normalised viability ([1]; 10000 nM): 57.8% | normalised viability ([2]; 10 nM): 109% | normalised viability ([2]; 1000 nM): 47.6% | normalised viability ([2]; 10000 nM): 56% | normalised viability ([3]; 10 nM): 92.6% | normalised viability ([3]; 1000 nM): 28.9% | normalised viability ([3]; 10000 nM): 26.9% | normalised viability ([4]; 10 nM): 89.1% | normalised viability ([4]; 1000 nM): 47.7% | normalised viability ([4]; 10000 nM): 50.4% | normalised viability ([5]; 3 nM): 105% | normalised viability ([5]; 30 nM): 106% | normalised viability ([5]; 100 nM): 88.9% | normalised viability ([6]; 10 nM): 93% | normalised viability ([6]; 1000 nM): 41.9% | normalised viability ([6]; 10000 nM): 35.6% | normalised viability ([7]; 3 nM): 90.6% | normalised viability ([7]; 30 nM): 92.8% | normalised viability ([7]; 100 nM): 94.4%

CCN(CC)CCOc1ccc(C(=C(Cl)c2ccccc2)c2ccccc2)cc1 [Clomifene]
normalised viability ([1]; 10 nM): 98.8% | normalised viability ([1]; 1000 nM): 93.8% | normalised viability ([1]; 10000 nM): 14.1% | normalised viability ([2]; 10 nM): 119% | normalised viability ([2]; 1000 nM): 109% | normalised viability ([2]; 10000 nM): 27.5% | normalised viability ([3]; 10 nM): 115% | normalised viability ([3]; 1000 nM): 117% | normalised viability ([3]; 10000 nM): 55.6% | normalised viability ([4]; 10 nM): 93.4% | normalised viability ([4]; 1000 nM): 95.3% | normalised viability ([4]; 10000 nM): 18% | normalised viability ([5]; 3 nM): 133% | normalised viability ([5]; 30 nM): 130% | normalised viability ([5]; 100 nM): 114% | normalised viability ([6]; 10 nM): 105% | normalised viability ([6]; 1000 nM): 105% | normalised viability ([6]; 10000 nM): 67.2% | normalised viability ([7]; 3 nM): 101% | normalised viability ([7]; 30 nM): 98.4% | normalised viability ([7]; 100 nM): 111%

C[C@@H]1C[C@H]2[C@@H]3CCC4=CC(=O)C=C[C@]4(C)[C@@]3(F)[C@@H](O)C[C@]2(C)[C@@]1(O)C(=O)CO [Dexamethasone]
normalised viability ([1]; 10 nM): 125% | normalised viability ([1]; 1000 nM): 111% | normalised viability ([1]; 10000 nM): 146% | normalised viability ([2]; 10 nM): 127% | normalised viability ([2]; 1000 nM): 89.6% | normalised viability ([2]; 10000 nM): 104% | normalised viability ([3]; 10 nM): 82.5% | normalised viability ([3]; 1000 nM): 100% | normalised viability ([3]; 10000 nM): 78.9% | normalised viability ([4]; 10 nM): 76% | normalised viability ([4]; 1000 nM): 77% | normalised viability ([4]; 10000 nM): 80.1% | normalised viability ([5]; 3 nM): 111% | normalised viability ([5]; 30 nM): 100% | normalised viability ([5]; 100 nM): 108% | normalised viability ([6]; 10 nM): 99.2% | normalised viability ([6]; 1000 nM): 86.7% | normalised viability ([6]; 10000 nM): 93% | normalised viability ([7]; 3 nM): 90% | normalised viability ([7]; 30 nM): 86.9% | normalised viability ([7]; 100 nM): 98.3%
